In paper PMC11206691, “N-Hydroxypiridinedione: A Privileged Heterocycle for Targeting the HBV RNase H” (Molecules, 2024):
Where two headings read alike, the source gives them in different places.

How the values were obtained:
[1] = Solubility limit assay (turbidity, DMEM-F12 + 10% FBS); format: physicochemical; conditions: pH 7.4, DMEM-F12 with 10% FBS, 1% DMSO, upper limit 200 µM
Procedure: Compound solubility limits were tested in DMEM-F12 without phenol red (Gibco, Grand Island, NY, USA) supplemented with 10% FBS (pH 7.2–7.4) to mimic cell culture experiments, as we have performed previously. Compounds were serially diluted in buffer at pH 7.4 in 384-well, optically clear plates (upper limit 200 µM, DMSO 1%) and read on a plate reader at 620 nm. Compound concentration (µM) was plotted against optical density (OD) and a solubility limit was determined by identifying an inflection point where there was a significant increase in optical density due to increasing turbidity; the concentration of the compound at the inflection point was defined as the solubility limit. Two or more replicate assays were performed on different days for each compound.

MTS cytotoxicity assay = format: cell-based; conditions: human, HepDES19 cells
Procedure: (§1) HepDES19 cells were incubated on collagen-coated plates at 37 °C with 5% CO2 and saturating humidity in Dulbecco’s modified Eagle’s medium (DMEM/F12) (Cytiva Life Sciences, Marlborough, MA, USA) supplemented with 10% fetal bovine serum (FBS), penicillin (100 IU/mL), and streptomycin (100 µg/mL). HepDES19 cells are HepG2 cells that carry a stably transfected HBV genotype D genome under the control of a tetracycline repressible promoter. Cells were maintained in the presence of 1 µg/mL tetracycline to repress the expression of the stably integrated HBV genome, and HBV replication was induced by the withdrawal of tetracycline from the culture medium.
Cell viability was assessed using the CellTiter 96^TM Aqueous Non-Radioactive Cell Proliferation assay (MTS) (Promega, Madison, WI, USA) as described previously. HepDES19 cells were seeded at 1 × 10^4 cells per well in 96-well, and compound was added after 48 h. Cells incubated with serially diluted compound (1% DMSO) for 72 h. Bac absorbance values were subtracted, and data were converted to percent cell viability. The cytotoxic concentration 50% (CC50) values were calculated with GraphPad Prism by using the four-parameter variable response log (inhibitor) versus response algorithm with the bottom value set to zero. Three or more replicate assays were performed on different days.

HBV replication = test: qPCR HBV replication inhibition assay in HepDES19 cells; format: cell-based, Hepatitis B virus (HBV) genotype D; conditions: 72 h, (+) DNA qPCR
Procedure: as §1
HBV replication inhibition was measured in HepDES19 cells induced to replicate HBV by the removal of tetracycline using a strand-preferential quantitative PCR assay as previously described. Cells were seeded at 4 × 10^4 cells/well in 96-well plates for 48 h. Serially diluted compound was then added to cells at a final concentration of 1% DMSO for 72 h, after which the cells were lysed and qPCR was performed as described in Li et al.. EC50 values were calculated from the (+) DNA data with GraphPad Prism using the four-parameter log (inhibitor) versus response algorithm with the bottom value set to zero. Three or more replicate assays were performed on different days.

[2] = Parallel artificial membrane permeability assay; format: in vitro ADME; design: key to Papp Interpretation: High rate of apparent passive permeability (>1 × 10^−6 cm/s); Low rate of apparent passive permeability (<1 × 10^−6 cm/s); INS: Compound was insoluble in 100% DMSO; conditions: for Papp interpretation (high/low permeability category) at 2 h, 200 µM / Papp at 2 h, 200 µM: PAMPA; for Papp interpretation (high/low permeability category) at 2 h, 200 µM: pH 7.4, pH 7.4; for Papp at 2 h, 200 µM: pH 7.4, pH 7.4, 200 μM; for Papp at 2 h, 200 µM / Papp: room temperature, 2 h; for Papp Interpretation: pH 7.4; for Papp: pH 7.4, 200 μM
Procedure: Apparent passive permeability (Papp) was assessed at pH 7.4 using a 96-well donor/acceptor cassette (Sigma Aldrich, Burlington, MA, USA), which mimics the apical and basolateral sides of the small intestine epithelium, as we have described previously. Briefly, an artificial membrane composed of 1% w/v lethicin/dodecane was added to the poly (vinylidene fluoride) (PVDF) membrane filter. Once dry, compounds (200 μM) were diluted in buffer at pH 7.4 and added to the donor side of the membrane, and the same pH buffer was added to the acceptor side. The cassette was assembled and incubated at room temperature with shaking at 250 rpm for 2 h, after which 100 μL of the acceptor well was retrieved and the experimental compound absorbance was read on a plate reader between 200 and 600 nm. Compound Papps (cm/s) values were determined by normalizing to the compound absorbance at equilibrium, incubation time, and membrane porosity Two or more replicate assays were conducted on different days.

[3] = DMEM-F12 without phenol red with 10% FBS, plasma or biological fluid, kinetic from dmso stock
[4] = Hepatitis B virus, read-out: EC50

## CC(=NOC(c1cc(F)cc(F)c1)c1ccccn1)c1c(C)cc(=O)n(O)c1O (centres unmarked) [Compound 38, 5-(1-(((3,5-Difluorophenyl)(pyridin-2-yl)methoxy)imino)ethyl)-1,6-dihydroxy-4-methylpyridin-2(1H)-one]
[1]; [3]
  solubility: 167 µM
MTS cytotoxicity assay
  CC50 at 72 h: 47.1 ± 21.7 µM
other
  melting point: 102 to 104 °C (dec.)
HBV replication; [4]
  EC50: 2.3 ± 0.2 µM
[2]
  Papp interpretation (high/low permeability category) at 2 h, 200 µM: > 1 ×10⁻⁶ cm/s
  Papp at 2 h, 200 µM: 2.61 ×10⁻⁶ cm/s

## 2,6-Diamino-4-(3-methoxyphenoxy)-1,6-dihydropyrimidine 1-oxide [Compound 55]
[1]
  solubility: > 200 µM
[2]
  Papp Interpretation: H (High rate of apparent passive permeability (>1 × 10^−6 cm/s))
  Papp: 6.17 ×10⁻⁶ cm/s

## COC(=O)c1ccc(CON=C(C)c2c(C)cc(=O)n(O)c2O)c(C#N)c1 [Compound 44, 2′-Cyano-4′-((((1′-(1,2-dihydroxy-4-methyl-6-oxo-1,6-dihydropyridin-5-yl)ethylidene)amino)oxy)methyl)methyl benzoate]
[1]; [3]
  solubility: > 200 µM
MTS cytotoxicity assay
  CC50 at 72 h: 91.9 ± 11.2 µM
other
  melting point: 115 °C
HBV replication; [4]
  EC50: 7.7 ± 1.4 µM
[2]
  Papp interpretation (high/low permeability category) at 2 h, 200 µM: > 1 ×10⁻⁶ cm/s
  Papp at 2 h, 200 µM: 5.42 ×10⁻⁶ cm/s

## CC(=NOC(CNC(=O)c1nccs1)c1cc(F)cc(F)c1)c1c(C)cc(=O)n(O)c1O (centres unmarked) [Compound 50, N-(2-(3,5-Difluorophenyl)-2-(((1-(1,2-dihydroxy-4-methyl-6-oxo-1,6-dihydropyridin-3-yl)ethylidene)amino)oxy)ethyl)thiazole-2-carboxamide]
[1]; [3]
  solubility: > 200 µM
MTS cytotoxicity assay
  CC50 at 72 h: 100 µM
other
  melting point: 117 to 119 °C (dec.)
HBV replication; [4]
  EC50: 4 ± 1.5 µM
[2]
  Papp interpretation (high/low permeability category) at 2 h, 200 µM: > 1 ×10⁻⁶ cm/s
  Papp at 2 h, 200 µM: 4.67 ×10⁻⁶ cm/s

## Nc1cc(Oc2ccc(Cl)cc2Cl)nc(N)[n+]1[O-] [Compound 57, 2,6-Diamino-4-(2′,4′-dichloro)-1,6-dihydropyrimidine 1-oxide]
[1]; [3]
  solubility: 100 µM
other
  melting point: 160 °C
HBV replication; [4]
  EC50: > 100 µM
[2]
  Papp interpretation (high/low permeability category) at 2 h, 200 µM: > 1 ×10⁻⁶ cm/s
  Papp at 2 h, 200 µM: 2.99 ×10⁻⁶ cm/s

## C#CCCON=C(C)c1c(C)cc(=O)n(O)c1O [Compound 41, 5-(1-((But-3-yn-1-yloxy)imino)ethyl)-1,6-dihydroxy-4-methylpyridin-2(1H)-one]
[1]; [3]
  solubility: > 200 µM
MTS cytotoxicity assay
  CC50 at 72 h: 57.5 ± 32.4 µM
other
  melting point: 86 to 89 °C (dec.)
HBV replication; [4]
  EC50: 1.2 ± 0.2 µM
[2]
  Papp interpretation (high/low permeability category) at 2 h, 200 µM: > 1 ×10⁻⁶ cm/s
  Papp at 2 h, 200 µM: 2.24 ×10⁻⁶ cm/s

## C#CCON=C(C)c1c(C)cc(=O)n(O)c1O [Compound 42, 1,6-Dihydroxy-4-methyl-5-(1-((prop-2-yn-1-yloxy)imino)ethyl)pyridin-2(1H)-one]
[1]; [3]
  solubility: 167 µM
MTS cytotoxicity assay
  CC50 at 72 h: 81.7 ± 18.6 µM
other
  melting point: 78 to 80 °C (dec.)
HBV replication; [4]
  EC50: 5.4 ± 2.2 µM
[2]
  Papp interpretation (high/low permeability category) at 2 h, 200 µM: > 1 ×10⁻⁶ cm/s
  Papp at 2 h, 200 µM: 3.74 ×10⁻⁶ cm/s

## Nc1cc(Oc2cc(Cl)c(Cl)cc2Cl)nc(N)[n+]1[O-] [Compound 56, 2,6-Diamino-4-(2′,4′,5′-trichloro)-1,6-dihydropyrimidine 1-oxide]
[1]; [3]
  solubility: 167 µM
other
  melting point: 135 °C
HBV replication; [4]
  EC50: > 100 µM
[2]
  Papp interpretation (high/low permeability category) at 2 h, 200 µM: > 1 ×10⁻⁶ cm/s
  Papp at 2 h, 200 µM: 3.85 ×10⁻⁶ cm/s

## COC(=O)c1ccc(CON=C(C)c2c(C)cc(=O)n(O)c2O)c(F)c1 [Compound 45, Methyl 4-((((1-(1,2-dihydroxy-4-methyl-6-oxo-1,6-dihydropyridin-3-yl)ethylidene)amino)oxy)methyl)-3-fluorobenzoate]
[1]; [3]
  solubility: > 200 µM
MTS cytotoxicity assay
  CC50 at 72 h: 90.2 ± 13.8 µM
other
  melting point: 130 °C (dec.)
HBV replication; [4]
  EC50: 3.2 ± 0.4 µM
[2]
  Papp interpretation (high/low permeability category) at 2 h, 200 µM: > 1 ×10⁻⁶ cm/s
  Papp at 2 h, 200 µM: 3.54 ×10⁻⁶ cm/s

## COC(=O)c1cc(Cl)c(CON=C(C)c2c(C)cc(=O)n(O)c2O)c(Cl)c1 [Compound 36, Methyl 3,5-dichloro-4-((((1-(1,2-dihydroxy-4-methyl-6-oxo-1,6-dihydropyridin-3-yl)ethylidene)amino)oxy)methyl)benzoate]
[1]; [3]
  solubility: 163 µM
MTS cytotoxicity assay
  CC50 at 72 h: 100 µM
other
  melting point: 117 to 119 °C (dec.)
HBV replication; [4]
  EC50: 3.1 ± 0.4 µM
[2]
  Papp interpretation (high/low permeability category) at 2 h, 200 µM: > 1 ×10⁻⁶ cm/s
  Papp at 2 h, 200 µM: 4.35 ×10⁻⁶ cm/s

## COC(=O)c1ccc(C(C)ON=C(C)c2c(C)cc(=O)n(O)c2O)cc1 (centres unmarked) [Compound 34, Methyl-4-(1-(((1-(1,2-dihydroxy-4-methyl-6-oxo-1,6-dihydropyridin-3-yl)ethylidene)amino)oxy)ethyl)benzoate]
[1]; [3]
  solubility: 50 µM
MTS cytotoxicity assay
  CC50 at 72 h: 96 ± 5.7 µM
other
  melting point: 130 °C (dec.)
HBV replication; [4]
  EC50: 6.3 ± 5.5 µM
[2]
  Papp interpretation (high/low permeability category) at 2 h, 200 µM: > 1 ×10⁻⁶ cm/s
  Papp at 2 h, 200 µM: 2.5 ×10⁻⁶ cm/s

## CC(=NOC(C)c1ccccc1)c1c(C)cc(=O)n(O)c1O (centres unmarked) [Compound 46, 1,6-Dihydroxy-4-methyl-5-(1-((1-phenylethoxy)imino)ethyl)pyridin-2(1H)-one]
[1]; [3]
  solubility: > 200 µM
MTS cytotoxicity assay
  CC50 at 72 h: 100 µM
other
  melting point: 130 to 132 °C
HBV replication; [4]
  EC50: 3.1 ± 0.5 µM
[2]
  Papp interpretation (high/low permeability category) at 2 h, 200 µM: > 1 ×10⁻⁶ cm/s
  Papp at 2 h, 200 µM: 3.19 ×10⁻⁶ cm/s

## COc1ccc(COc2cc(N)[n+]([O-])c(N)n2)cc1 [Compound 58, 2,6-Diamino-4-((4-methoxybenzyl)oxy)pyrimidine 1-oxide]
[1]; [3]
  solubility: > 200 µM
other
  melting point: > 250 °C
HBV replication; [4]
  EC50: > 100 µM
[2]
  Papp interpretation (high/low permeability category) at 2 h, 200 µM: > 1 ×10⁻⁶ cm/s
  Papp at 2 h, 200 µM: 2.56 ×10⁻⁶ cm/s

## COC(=O)c1ccc(CO/N=C(\C)C2C(=O)NC(=O)NC2=O)cc1 [Compound 59, Methyl 4′-((((1-(2,4,6-Trioxohexahydropyrimidin-5-yl)ethylidene)amino)oxy)methyl)benzoate]
[1]
  Solubility Limit: INS
other
  melting point: > 250 °C
HBV replication
  EC50: lacked any inhibitory activity
[2]
  Papp Interpretation: INS
  Papp: INS
